Assay results published in US20230301300A1, “HERBICIDAL COMPOSITIONS” (SYNGENTA CROP PROTECTION AG, priority 2020, published 2023).

Key:
Type in all cases: in vivo
[1] = tested on: Amaranthus retoflexus (AMARE); experiment: B1 Post-Emergence Efficacy - Test 1; conditions: 1000 g/ha, after 13 days, five point scale
Description: (§1) Seeds of a variety of test species are sown in standard soil in pots:— Solanum nigrum (SOLNI), Amaranthus retoflexus (AMARE), Setaria faberi (SETFA), Alopecurus myosuroides (ALOMY), Echinochloa crus-galli (ECHCG), Ipomoea hederacea (IPOHE), Lolium perenne (LOLPE). After 8 days cultivation (post-emergence) under controlled conditions in a glasshouse (at 24/16° C., day/night; 14 hours light; 65% humidity), the plants are sprayed with an aqueous spray solution derived from the formulation of the technical active ingredient in acetone/water (50:50) solution containing 0.5% Tween 20 (polyoxyethylene sorbitan monolaurate, CAS RN 9005-64-5). Compounds are applied at 1000 g/ha. The test plants are then grown in a glasshouse under controlled conditions in a glasshouse (at 24/16° C., day/night; 14 hours light; 65% humidity) and watered twice daily. After 13 days, the test is evaluated for the percentage damage caused to the plant. The biological activities are assessed on a five point scale (5=80-100%; 4=60-79%; 3=40-59%; 2=20-39%; 1=0-19%). A blank value in the table is indicative that the compound was not tested on that species.

[2] = tested on: Ipomoea hederacea (IPOHE); experiment: B1 Post-Emergence Efficacy - Test 1; conditions: 1000 g/ha, after 13 days, five point scale
Description: as §1

[3] = tested on: Solanum nigrum (SOLNI); experiment: B1 Post-Emergence Efficacy - Test 1; conditions: 1000 g/ha, after 13 days, five point scale
Description: as §1

[4] = tested on: Echinochloa crus-galli (ECHCG); experiment: B1 Post-Emergence Efficacy - Test 1; conditions: 1000 g/ha, after 13 days, five point scale
Description: as §1

[5] = tested on: Lolium perenne (LOLPE); experiment: B1 Post-Emergence Efficacy - Test 1; conditions: 1000 g/ha, after 13 days, five point scale
Description: as §1

[6] = tested on: Setaria faberi (SETFA); experiment: B1 Post-Emergence Efficacy - Test 1; conditions: 1000 g/ha, after 13 days, five point scale
Description: as §1

[7] = tested on: Kochia scoparia (KSHSC); experiment: B2 Post-Emergence Efficacy - Test 2; conditions: 15 days after application, 0-100 scale
Description: (§2) Seeds of a variety of test species (see Table B1) were sown in standard soil in pots. After cultivation for 12 days (post-emergence) under controlled conditions in a glasshouse (at 24/18° C. or 20/16° C., at day/night; 16 hours light; 65% humidity), the plants were sprayed with an aqueous spray solution derived from the formulation of the technical active ingredient dissolved in IF50 (see Table B2 for composition) and adjuvant (Genapol X080) was added to the spray solution at a rate of 0.2% v/v.
(§3) After application, the test plants were grown in a glasshouse under controlled conditions (as above) and watered twice daily. Herbicidal activity was evaluated 15 days after application on a 0-100 scale. The results, where 0=no damage to test plant and 100=total kill of test plant are shown below in Tables 8 to 11.

[8] = tested on: Sida spinosa (SIDSP); experiment: B2 Post-Emergence Efficacy - Test 2; conditions: 15 days after application, 0-100 scale
Description: as §2, §3

[9] = tested on: Glycine max (GLXMA); experiment: B2 Post-Emergence Efficacy - Test 2; conditions: 15 days after application; for Herbicidal activity GLXMA: 0-100 scale; for Herbicidal activity on a 0-100 scale, GLXMA: 0=no damage, 100=total kill
Description: as §2, §3

[10] = tested on: Orysa sativa (ORYSA); experiment: B2 Post-Emergence Efficacy - Test 2; conditions: 15 days after application; for Herbicidal activity ORYSA: 0-100 scale; for Herbicidal activity on a 0-100 scale, ORYSA: 0=no damage, 100=total kill
Description: as §2, §3

[11] = tested on: Ipomoea hederacea (IPOHE); experiment: B2 Post-Emergence Efficacy - Test 2; conditions: 15 days after application, 0-100 scale
Description: as §2, §3

[12] = tested on: Amaranthus retroflexus (AMARE); experiment: B2 Post-Emergence Efficacy - Test 2; conditions: 15 days after application, 0-100 scale
Description: as §2, §3

[13] = tested on: Xanthium strumarium (XANST); experiment: B2 Post-Emergence Efficacy - Test 2; conditions: 15 days after application, 0-100 scale
Description: as §2, §3

[14] = tested on: Veronica persica (VERPE); experiment: B2 Post-Emergence Efficacy - Test 2; conditions: 15 days after application, 0-100 scale
Description: as §2, §3

[15] = tested on: Avena fatua (AVEFA); experiment: B2 Post-Emergence Efficacy - Test 2; conditions: 15 days after application, 0-100 scale
Description: as §2, §3

[16] = tested on: Beta vulgaris (BEAVA); experiment: B2 Post-Emergence Efficacy - Test 2; conditions: 15 days after application, 0-100 scale
Description: as §2, §3

[17] = tested on: Brassica napus (BRSNN); experiment: B2 Post-Emergence Efficacy - Test 2; conditions: 15 days after application, 0-100 scale
Description: as §2, §3

Cc1nn(C)c(=O)c(-c2c(F)ccc(Cl)c2CCc2ccc(F)cc2)c1OC(=O)C(C)C [Compound 1.125, [5-[3-chloro-6-fluoro-2-[2-(4-fluorophenyl)ethyl]phenyl]-1,3-dimethyl-6-oxo-pyridazin-4-yl] 2-methylpropanoate]
percentage damage caused to the plant, AMARE [1]: 5 (5=80-100%)
percentage damage caused to the plant, IPOHE [2]: 5 (5=80-100%)
percentage damage caused to the plant, SOLNI [3]: 5 (5=80-100%)
percentage damage caused to the plant, ECHCG [4]: 5 (5=80-100%)
percentage damage caused to the plant, LOLPE [5]: 5 (5=80-100%)
percentage damage caused to the plant, SETFA [6]: 5 (5=80-100%)
Herbicidal activity KCHSC ([7]; 15 g/Ha): 0
Herbicidal activity KCHSC ([7]; 30 g/Ha): 2
Herbicidal activity KCHSC ([7]; 60 g/Ha): 30
Herbicidal activity KCHSC ([7]; 125 g/Ha): 50
Herbicidal activity KCHSC ([7]; 250 g/Ha): 60
Herbicidal activity KCHSC ([7]; 500 g/Ha): 70
Herbicidal activity SIDSP ([8]; 60 g/Ha): 80
Herbicidal activity SIDSP ([8]; 125 g/Ha): 90
Herbicidal activity SIDSP ([8]; 250 g/Ha): 90
Herbicidal activity SIDSP ([8]; 500 g/Ha): 100
Herbicidal activity GLXMA ([9]; 15 g/Ha): 40
Herbicidal activity on a 0-100 scale, GLXMA ([9]; 15 g/Ha): 40
Herbicidal activity GLXMA ([9]; 30 g/Ha): 70
Herbicidal activity on a 0-100 scale, GLXMA ([9]; 30 g/Ha): 70
Herbicidal activity GLXMA ([9]; 60 g/Ha): 70
Herbicidal activity on a 0-100 scale, GLXMA ([9]; 60 g/Ha): 70
Herbicidal activity GLXMA ([9]; 250 g/Ha): 90
Herbicidal activity on a 0-100 scale, GLXMA ([9]; 250 g/Ha): 90
Herbicidal activity GLXMA ([9]; 500 g/Ha): 90
Herbicidal activity on a 0-100 scale, GLXMA ([9]; 500 g/Ha): 90
Herbicidal activity ORYSA ([10]; 15 g/Ha): 0
Herbicidal activity on a 0-100 scale, ORYSA ([10]; 15 g/Ha): 0
Herbicidal activity ORYSA ([10]; 30 g/Ha): 0
Herbicidal activity on a 0-100 scale, ORYSA ([10]; 30 g/Ha): 0
Herbicidal activity ORYSA ([10]; 60 g/Ha): 0
Herbicidal activity on a 0-100 scale, ORYSA ([10]; 60 g/Ha): 0
Herbicidal activity ORYSA ([10]; 125 g/Ha): 0
Herbicidal activity on a 0-100 scale, ORYSA ([10]; 125 g/Ha): 0
Herbicidal activity ORYSA ([10]; 250 g/Ha): 0
Herbicidal activity on a 0-100 scale, ORYSA ([10]; 250 g/Ha): 0
Herbicidal activity ORYSA ([10]; 500 g/Ha): 0
Herbicidal activity on a 0-100 scale, ORYSA ([10]; 500 g/Ha): 0
Herbicidal activity IPOHE ([11]; 15 g/Ha): 90
Herbicidal activity IPOHE ([11]; 30 g/Ha): 100
Herbicidal activity IPOHE ([11]; 60 g/Ha): 100
Herbicidal activity IPOHE ([11]; 125 g/Ha): 100
Herbicidal activity IPOHE ([11]; 250 g/Ha): 100
Herbicidal activity IPOHE ([11]; 500 g/Ha): 100
Herbicidal activity AMARE ([12]; 15 g/Ha): 80
Herbicidal activity AMARE ([12]; 30 g/Ha): 90
Herbicidal activity AMARE ([12]; 60 g/Ha): 90
Herbicidal activity AMARE ([12]; 125 g/Ha): 100
Herbicidal activity AMARE ([12]; 250 g/Ha): 100
Herbicidal activity AMARE ([12]; 500 g/Ha): 100
Herbicidal activity XANST ([13]; 30 g/Ha): 90
Herbicidal activity XANST ([13]; 60 g/Ha): 90
Herbicidal activity XANST ([13]; 125 g/Ha): 90
Herbicidal activity XANST ([13]; 250 g/Ha): 90
Herbicidal activity XANST ([13]; 500 g/Ha): 100
Herbicidal activity VERPE ([14]; 15 g/Ha): 70
Herbicidal activity VERPE ([14]; 30 g/Ha): 70
Herbicidal activity VERPE ([14]; 60 g/Ha): 70
Herbicidal activity VERPE ([14]; 125 g/Ha): 80
Herbicidal activity VERPE ([14]; 250 g/Ha): 80
Herbicidal activity VERPE ([14]; 500 g/Ha): 90
Herbicidal activity AVEFA ([15]; 15 g/Ha): 30
Herbicidal activity AVEFA ([15]; 30 g/Ha): 40
Herbicidal activity AVEFA ([15]; 60 g/Ha): 60
Herbicidal activity AVEFA ([15]; 125 g/Ha): 70
Herbicidal activity AVEFA ([15]; 250 g/Ha): 70
Herbicidal activity AVEFA ([15]; 500 g/Ha): 80
Herbicidal activity BEAVA ([16]; 15 g/Ha): 70
Herbicidal activity BEAVA ([16]; 30 g/Ha): 60
Herbicidal activity BEAVA ([16]; 60 g/Ha): 60
Herbicidal activity BEAVA ([16]; 125 g/Ha): 70
Herbicidal activity BEAVA ([16]; 250 g/Ha): 70
Herbicidal activity BEAVA ([16]; 500 g/Ha): 70
Herbicidal activity BRSNN ([17]; 15 g/Ha): 80
Herbicidal activity BRSNN ([17]; 30 g/Ha): 80
Herbicidal activity BRSNN ([17]; 60 g/Ha): 80
Herbicidal activity BRSNN ([17]; 125 g/Ha): 90
Herbicidal activity BRSNN ([17]; 250 g/Ha): 90
Herbicidal activity BRSNN ([17]; 500 g/Ha): 90
